Measurements published in patent publication US20240382482A1, “PLASMA KALLIKREIN INHIBITORS” (TAKEDA PHARMACEUTICAL COMPANY LIMITED, priority 2021, published 2024).
Counter-ions that a name gives are not always drawn.

Biological target: human activated kallikrein enzyme (Homo sapiens, UniProt P03952)
Experiment: Inhibition of human activated kallikrein enzyme, fluorogenic peptide substrate assay (500 pM enzyme format)
Assay type: biochemical
Details: 500 pM activated kallikrein, 300 μM PFR-AMC substrate, 30 min preincubation, 10 min reaction, room temperature; read-out: Primary Dose Response Assay: Average EC50
Summary of the method: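 500 pM enzyme preincubated 30 min at room temperature with inhibitor in 20 mM Tris pH 7.5, 150 mM NaCl, 1 mM EDTA, 0.1% PEG-400, 0.1% Triton X-100. Reaction started with 300 μM PFR-AMC and run 10 min at room temperature. AMC fluorescence read at ex 380/em 460 nm, and EC50 values reported as ranges.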

human activated kallikrein enzyme, sequence (P03952 391-638 limits assumed): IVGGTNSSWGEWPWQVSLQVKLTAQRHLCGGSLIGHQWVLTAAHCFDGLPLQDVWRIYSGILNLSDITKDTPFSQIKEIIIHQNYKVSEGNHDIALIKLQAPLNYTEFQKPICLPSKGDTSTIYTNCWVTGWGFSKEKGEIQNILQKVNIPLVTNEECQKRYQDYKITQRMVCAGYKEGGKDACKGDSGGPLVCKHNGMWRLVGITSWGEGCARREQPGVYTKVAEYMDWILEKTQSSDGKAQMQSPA
human activated kallikrein enzyme, sequence (P03952 20-390 partner limits assumed): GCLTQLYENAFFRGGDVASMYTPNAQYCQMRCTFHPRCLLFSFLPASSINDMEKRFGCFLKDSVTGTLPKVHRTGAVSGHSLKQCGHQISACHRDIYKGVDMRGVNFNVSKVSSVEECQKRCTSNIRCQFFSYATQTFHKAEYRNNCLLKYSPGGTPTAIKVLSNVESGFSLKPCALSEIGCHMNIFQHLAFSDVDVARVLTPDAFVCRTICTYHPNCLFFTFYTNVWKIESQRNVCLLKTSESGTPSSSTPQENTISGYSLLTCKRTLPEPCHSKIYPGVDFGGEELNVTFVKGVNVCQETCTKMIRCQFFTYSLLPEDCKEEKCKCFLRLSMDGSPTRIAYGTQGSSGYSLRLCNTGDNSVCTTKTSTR

`N#Cc1cc(C2CC2)cn2cc(COc3cc(NC(=O)Cc4ncn5ccc(Cl)cc45)ncn3)nc12` [Example 22, 2-(7-chloroimidazo[1,5-a]pyridin-1-yl)-N-(6-((8-cyano-6-cyclopropylimidazo[1,2-a]pyridin-2-yl)methoxy)pyrimidin-4-yl)acetamide] and `CCOC(=O)CCc1cc(C2CC2)cn2cc(CNc3cc(NC(=O)Cc4ncn5ccc(Cl)cc45)ncn3)nc12` [Example 38, ethyl 3-(2-(((6-(2-(7-chloroimidazo[1,5-a]pyridin-1-yl)acetamido)pyrimidin-4-yl)amino)methyl)-6-cyclopropylimidazo[1,2-a]pyridin-8-yl)propanoate] cannot be ordered by EC50: 5 to 50 nM for the first, no more than 5 nM for the second.

`CC(C(=O)Nc1cc(NCc2cn3cc(C4CC4)ccc3n2)ncn1)c1ncn2ccc(Cl)cc12` (stereo not drawn) [Example 4, 2-(7-chloroimidazo[1,5-a]pyridin-1-yl)-N-(6-(((6-cyclopropylimidazo[1,2-a]pyridin-2-yl)methyl)amino)pyrimidin-4-yl)propanamide] and `O=C(Nc1cc(NCc2cn3cc(C4CC4)ccc3n2)ncn1)C(=O)c1ncn2ccc(Cl)cc12` [Example 54, 2-(7-chloroimidazo[1,5-a]pyridin-1-yl)-N-(6-(((6-cyclopropylimidazo[1,2-a]pyridin-2-yl)methy)amino)pyrimidin-4-yl)-2-oxoacetamide] cannot be ordered by EC50: 5 to 50 nM for the first, no more than 5 nM for the second.

Compared with `O=C(Cn1cc(Cl)ccc1=O)Nc1cc(NCc2cn3cc(C4CC4)ccc3n2)ncn1` [Example 119, 2-(5-chloro-2-oxopyridin-1 (2H)-yl)-N-(6-(((6-cyclopropylimidazo[1,2-a]pyridin-2-yl)methyl)amino)pyrimidin-4-yl)acetamide], `CC(Oc1cccc(Cl)c1)C(=O)Nc1cc(NCc2cn3cc(C4CC4)ccc3n2)ncn1` (stereo not drawn) [Example 49, 2-(3-chlorophenoxy)-N-(6-(((6-cyclopropylimidazo[1,2-a]pyridin-2-yl)methyl)amino)pyrimidin-4-yl)propanamide formic acid salt] is lower in EC50: greater than 9000 nM for the first, 500 to 9000 nM for the second.

`Cc1cc(C(=N)N)cc(C)c1CNc1cc(OCc2cn3cc(Cl)ccc3n2)ncn1` [Example 69, 4-(((6-((6-chloroimidazo[1,2-a]pyridin-2-yl)methoxy)pyrimidin-4-yl)amino)methyl)-3,5-dimethylbenzimidamide formic acid salt] and `Cc1cc(C(=N)NO)cc(C)c1CNc1cc(OCc2cn3cc(C4CC4)ccc3n2)ncn1` [Example 71, 4-(((6-((6-cyclopropylimidazo[1,2-a]pyridin-2-yl)methoxy)pyrimidin-4-yl)amino)methyl)-N-hydroxy-3,5-dimethylbenzimidamide] cannot be ordered by EC50: no more than 5 nM for the first, 5 to 50 nM for the second.

Compared with `Clc1cccc([C@H]2C[C@@H]2CNc2cc(NCc3cn4cc(C5CC5)ccc4n3)ncn2)c1` [Example 138, N^4-(((1S,2S)-2-(3-chlorophenyl)cyclopropyl)methyl)-N^6-((6-cyclopropylimidazo[1,2-a]pyridin-2-yl)methyl)pyrimidine-4,6-diamine], `C[C@H](C(=O)Nc1cc(NCc2cn3cc(C4CC4)ccc3n2)ncn1)[C@@H](C)c1cccc(Cl)c1` [Example 133, (2S,3R)-3-(3-chlorophenyl)-N-(6-(((6-cyclopropylimidazo[1,2-a]pyridin-2-yl)methyl)amino)pyrimidin-4-yl)-2-methylbutanamide] is higher in EC50: 500 to 9000 nM for the first, greater than 9000 nM for the second. The first is the more potent here.

`Cc1cc(C(=N)N)cc(C)c1CNc1cc(OCc2cn3cc(C4CC4)ccc3n2)nc(CC(C)(C)C(=O)O)n1` [Example 92, 3-(4-((4-carbamimidoyl-2,6-dimethylbenzyl)amino)-6-((6-cyclopropylimidazo[1,2-a]pyridin-2-yl)methoxy)pyrimidin-2-yl)-2,2-dimethylpropanoic acid] and `Cc1cc(C(=N)N)cc(C)c1CNc1cc(OCc2cn3cc(C4CC4)ccc3n2)nc(C(=O)O)n1` [Example 85, 4-((4-carbamimidoyl-2,6-dimethylbenzyl)amino)-6-((6-cyclopropylimidazo[1,2-a]pyridin-2-yl)methoxy)pyrimidine-2-carboxylic acid] cannot be ordered by EC50: no more than 5 nM for the first, no more than 5 nM for the second.

First: O=C(Cc1ncn2ccc(Cl)cc12)Nc1cc(C(F)(F)c2cn3cc(C4CC4)ccc3n2)ncn1 [Example 60, 2-(7-chloroimidazo[1,5-a]pyridin-1-yl)-N-(6-((6-cyclopropylimidazo[1,2-a]pyridin-2-yl)difluoromethyl)pyrimidin-4-yl)acetamide formic acid salt]
Second: CC(C(=O)Nc1cc(C(F)(F)c2cn3cc(C4CC4)ccc3n2)ncn1)c1ncn2ccc(Cl)cc12 (stereo not drawn) [Example 61, 2-(7-chloroimidazo[1,5-a]pyridin-1-yl)-N-(6-((6-cyclopropylimidazo[1,2-a]pyridin-2-yl)difluoromethyl)pyrimidin-4-yl)propanamide]
The EC50 of the first is lower: 50 to 500 nM for the first, 500 to 9000 nM for the second.

First: CCOC(=O)c1nc(NCc2c(C)cc(C(=N)NO)cc2C)cc(OCc2cn3cc(C4CC4)ccc3n2)n1 [Example 81, ethyl 4-((6-cyclopropylimidazo[1,2-a]pyridin-2-yl)methoxy)-6-((4-(N-hydroxycarbamimidoyl)-2,6-dimethylbenzyl)amino)pyrimidine-2-carboxylate]
Second: Cc1cc(C(=N)NO)cc(C)c1CNc1cc(OCc2cn3cc(C4CC4)ccc3n2)nc(C(=O)O)n1 [Example 84, 4-((6-cyclopropylimidazo[1,2-a]pyridin-2-yl)methoxy)-6-((4-(N-hydroxycarbamimidoyl)-2,6-dimethylbenzyl)amino)pyrimidine-2-carboxylic acid]
The EC50 of the first is higher: 50 to 500 nM for the first, 5 to 50 nM for the second.

`CCCCCCOC(=O)NC(=N)c1cc(C)c(CNc2cc(OCc3cn4cc(C5CC5)ccc4n3)ncn2)c(C)c1` [Example 76, hexyl ((4-(((6-((6-cyclopropylimidazo[1,2-a]pyridin-2-yl)methoxy)pyrimidin-4-yl)amino)methyl)-3,5-dimethylphenyl)(imino)methyl)carbamate] and `CCOC(=O)NC(=N)c1cc(C)c(CNc2cc(OCc3cn4cc(C5CC5)ccc4n3)nc(C(=O)OCC)n2)c(C)c1` [Example 86, ethyl 4-((6-cyclopropylimidazo[1,2-a]pyridin-2-yl)methoxy)-6-(4-(N-(ethoxycarbonyl)carbamimidoyl)-2,6-dimethylbenzylamino)pyrimidine-2-carboxylate] fall in the same range of EC50: 50 to 500 nM for the first, 50 to 500 nM for the second.

`COc1ccc(-n2cnnn2)c(CC(=O)Nc2cc(NCc3cn4cc(C5CC5)ccc4n3)ncn2)c1F` [Example 37] and `N#Cc1cc(C2CC2)cn2cc(CNc3cc(NC(=O)Cc4cc(Cl)ccc4-n4cnnn4)ncn3)nc12` [Example 15, 2-(5-chloro-2-(1H-tetrazol-1-yl)phenyl)-N-(6-(((8-cyano-6-cyclopropylimidazo[1,2-a]pyridin-2-yl)methyl)amino)pyrimidin-4-yl)acetamide] cannot be ordered by EC50: no more than 5 nM for the first, no more than 5 nM for the second.

`COCCOc1nc(NCc2cn3cc(C4CC4)ccc3n2)cc(NC(=O)Cc2ncn3ccc(Cl)cc23)n1` [Example 100, 2-(7-chloroimidazo[1,5-a]pyridin-1-yl)-N-(6-(((6-cyclopropylimidazo[1,2-a]pyridin-2-yl)methyl)amino)-2-(2-methoxyethoxy)pyrimidin-4-yl)acetamide] and `O=c1c(NCc2cn3cc(C4CC4)ccc3n2)c(NCc2ncn3ccc(Cl)cc23)c1=O` [Example 68, 3-(((7-chloroimidazo[1,5-a]pyridin-1-yl)methyl)amino)-4-(((6-cyclopropylimidazo[1,2-a]pyridin-2-yl)methyl)amino)cyclobut-3-ene-1,2-dione] fall in the same range of EC50: 5 to 50 nM for the first, 5 to 50 nM for the second.

`O=C(Cc1cnc2[nH]cc(Cl)c2c1)Nc1cc(NCc2cn3cc(C4CC4)ccc3n2)ccn1` [Example 130, 2-(3-chloro-1H-pyrrolo[2,3-b]pyridin-5-yl)-N-(4-(((6-cyclopropylimidazo[1,2-a]pyridin-2-yl)methyl)amino)pyridin-2-yl)acetamide] and `O=C(Cc1cc2c(Cl)c[nH]c2cc1F)Nc1cc(NCc2cn3cc(C4CC4)ccc3n2)ccn1` [Example 132, 2-(3-chloro-6-fluoro-1H-indol-5-yl)-N-(4-(((6-cyclopropylimidazo[1,2-a]pyridin-2-yl)methyl)amino)pyridin-2-yl)acetamide] cannot be ordered by EC50: no more than 5 nM for the first, 5 to 50 nM for the second.

First: O=C(Cn1cnc2ccc(Cl)cc21)Nc1cc(NCc2cn3cc(C4CC4)ccc3n2)ccn1 [Example 28, 2-(6-chloro-1H-benzo[d]imidazol-1-yl)-N-(4-(((6-cyclopropylimidazo[1,2-a]pyridin-2-yl)methyl)amino)pyridin-2-yl)acetamide]
Second: O=C(CNc1cc(Cl)ccc1-n1cnnn1)Nc1cc(NCc2cn3cc(C4CC4)ccc3n2)ccn1 [Example 117, 2-((5-chloro-2-(1H-tetrazol-1-yl)phenyl)amino)-N-(4-(((6-cyclopropylimidazo[1,2-a]pyridin-2-yl)methyl)amino)pyridin-2-yl)acetamide]
The EC50 of the first is higher: 500 to 9000 nM for the first, 5 to 50 nM for the second.

`O=C(Cc1ncn2ccc(Cl)cc12)Nc1cc(NCc2cn3cc(C4CC4)cc(CN4CCOCC4)c3n2)ncn1` [Example 48, 2-(7-chloroimidazo[1,5-a]pyridin-1-yl)-N-(6-(((6-cyclopropyl-8-(morpholinomethyl)imidazo[1,2-a]pyridin-2-yl)methyl)amino)pyrimidin-4-yl)acetamide] and `O=C(Cc1ncn2ccc(Cl)cc12)Nc1cncnc1NCc1cn2c(F)c(C3CC3)ccc2n1` [Example 43, 2-(7-chloroimidazo[1,5-a]pyridin-1-yl)-N-(4-(((6-cyclopropyl-5-fluoroimidazo[1,2-a]pyridin-2-yl)methyl)amino)pyrimidin-5-yl)acetamide] cannot be ordered by EC50: no more than 5 nM for the first, 5 to 50 nM for the second.

First: CCOC(=O)CCc1cc(C2CC2)cn2cc(COc3cc(NCc4c(C)cc(C(=N)N)cc4C)ncn3)nc12 [Example 96, ethyl 3-(2-(((6-((4-carbamimidoyl-2,6-dimethylbenzyl)amino)pyrimidin-4-yl)oxy)methyl)-6-cyclopropylimidazo[1,2-a]pyridin-8-yl)propanoate]
Second: O=C(Nc1cc(NCc2cn3cc(C4CC4)ccc3n2)ccn1)c1ccc2ccc(Cl)cc2c1 [Example 118, 7-chloro-N-(4-(((6-cyclopropylimidazo[1,2-a]pyridin-2-yl)methyl)amino)pyridin-2-yl)-2-naphthamide]
The EC50 of the first is lower: no more than 5 nM for the first, 50 to 500 nM for the second. The first is the more potent here.
